Results reported in US8318184B2, “MGLU2 agonists” (Eli Lilly and Company, priority 2009, dated 2012).

Legend:
Fischer F-344 rats = assay: Attenuation of Stress-Induced Hyperthermia in Rats; format: in vivo, rat; details: dose producing 35% reduction in stress-induced hyperthermic response
Description: In many anxiety disorders, hyperthermia occurs as part of the pathology and is considered a symptom of the disease. Compounds which attenuate stress-induced hyperthermia in animals are believed to be useful in treating anxiety disorders in humans. Generalized anxiety disorder is an example of such disorders that may be treated with such compounds. The conventional and minimally-invasive method for analyzing stress-induced hyperthermia is by measuring body temperature, and stress-induced increases in body temperature, via rectal thermometer. Male Fischer F-344 rats (Harlan, Indianapolis, Ind., USA) weighing between 275-350 g are tested. All animals are individually-housed with food and automated water available ad libitum, and maintained on a 12 h light/dark cycle (lights on at 06:00). Animals are fasted for approximately 12-18 hours before the experiment, which is conducted during the light phase. Rats are dosed two hours prior to the experiment by either intraperitoneal (i.p., non-prodrug) or per os (p.o., prodrug) route of administration in a dose volume of 1 mL/kg. […]
After the pretreatment period, rats are taken individually to a brightly lit adjacent room where baseline body temperatures are determined by insertion of a rectal probe lubricated with mineral oil. Body temperature is assessed using a […] […] Ten minutes later a second body temperature measurement is recorded (T2). […]

Sprague-Dawley rats = assay: Reversal of Phencyclidine (PCP)-Induced Hyperlocomotor Activity in Rats; format: in vivo; details: Rattus norvegicus
Description: Administration of NMDA receptor antagonists, such as ketamine or phencyclidine (PCP), produces psychotomimetic-like effects in humans that are similar to those symptoms observed in patients with schizophrenia.
Motor activity is monitored by placing individual male, Sprague-Dawley (Harlan, Indianapolis, Ind.) rats in transparent, plastic shoe-box cages of the dimensions 45×25×20 cm, with 1 cm depth of wood chips as bedding, and a metal grill on top of the cage. Motor monitors (Kinder Scientific) consist of a rectangular rack of 12 photobeams arranged in an 8×4 formation, (or a high density grouping of 22 in a 15×7 pattern) at a height of 5 cm, with a second rack (for measuring rearing behaviors) at a height of 15 cm. The shoe box cage is placed inside of these racks, with the racks on a 3 foot high tabletop in an isolated room. A compound of the present invention is dosed (intraperitoneal route (i.p.), non-prodrug) within a range of 0.3-10 mg/kg, 30 minutes prior to a 5 mg/kg challenge dose of phencyclidine (PCP). A compound of the present invention is dosed (oral route, prodrug) within a range of 0.3-30 mg/kg, in overnight fasted rats, 4 hours prior to a 5 mg/kg challenge dose of PCP. On the test day, rats are placed in the test cage and allowed to acclimate for 30 minutes prior to PCP challenge; rats are monitored for an additional 60 minutes following PCP administration.
Data analysis and ED50 calculations are conducted using GraphPad Prism (San Diego, Calif. USA). Power analyses have determined that 8-10 rats per group are needed to have appropriate statistical power for detecting treatment differences (power=0.8). A one-way analysis of variance (ANOVA) with a post-hoc Dunnett's multiple comparison test is conducted on the total 60 minute locomotor activity. ED50 calculations are performed using non-linear regression curve fitting on percent reversal transformed data for each dose.

[1] = 1 h, 10 µM, pH 7.4
Description: Frozen human duodenum intestinal homogenates (1:2 tissue:buffer ratio using 100 mM Tris Phosphate buffer, pH 7.4) are obtained from Celsius In Vitro Technologies (Baltimore, Md.) that were both phenylmethylsulphonylfluoride (PMSF) and EDTA free.
Each lot of human duodenum is obtained from a single donor and the intestine is scraped and the sections are frozen separate. All original tissue collections are performed at 4° C. and immediately frozen at −70° C. Human intestinal homogenates are thawed and diluted to a final protein concentration of 0.5 mg/mL in 100 mM PBS buffer, pH 7.4 immediately prior to the incubations.
Incubations are conducted in 96-well plates and all prodrug compounds are run in duplicate on each day. Stock prodrug compound solutions are prepared in water at a concentration of 1 mM. A 200 μL aliquot of 0.5 mg/mL intestinal homogenate and 196 μL of 100 mM PBS buffer are placed in a 96-well plate in a 37° C. water bath. Using a 96-well pipettor, 4 μL of the 1 mM prodrug compound solution is transferred into the homogenate. Immediately after addition of the prodrug compound (time zero) and after 1 hour incubation, 50 μL samples of the incubation mixture are removed using an automated disposable simultaneous 96 well pipettor and added directly to 200 μL of methanol quench solution containing 100 ng/mL of Internal Standard. The samples are then centrifuged at 3500 rpm for 5 minutes at 10° C. The supernatant (200 μL) is transferred to a final 96 well PCR plate and sealed for analysis by LC/MS/MS.
Concentrations of hydrolyzed compounds of the present invention in the incubation mixtures are determined using LC/MS/MS detection on a Sciex API 4000 quadrapole mass spectrometer with Analyst version 1.4.2, TurboIonSpray, positive ionization, and Selected Reaction Monitoring (SRM). A Waters Atlantis® T3 (20×2.1 mm, 5 μM) HPLC column is used at ambient temperature with a flow rate of 1.0 mL/min and a mobile phase gradient from 0.1% mobile phase A to 99% mobile phase A. Mobile phase A is 1000:5 water:heptafluorobuteric acid and mobile phase B is 1:1 methanol:glacial acetic acid.
Concentrations of hydrolyzed compounds of the present invention in the intestinal incubation mixtures are determined from standard curves prepared by replicate two-fold dilution starting at 10 μM in 100 mM PBS pH 7.4 and subsequently quenched with methanol-internal standard solution identical to the samples. Averages and standard deviations are calculated using Microsoft® Office Excel® 2007. Amount of hydrolysis is determined as a molar percentage of compound formed relative to prodrug compound concentration added. […] Final values are then normalized relative to the formation of Internal Compound Drug A.

| human intestinal hydrolysis relative to Internal Prodrug Compound A [1] | SMILES | T35 (Fischer F-344 rats; i.p.) | ED50 (Sprague-Dawley rats; 0.5 h, i.p., 30 minutes prior to 5 mg/kg PCP) | T35 (Fischer F-344 rats; p.o.) | ED50 (Sprague-Dawley rats; p.o., overnight fasted, 4 hours prior to 5 mg/kg PCP) |
| --- | --- | --- | --- | --- | --- |
|  | N[C@@]1(C(=O)O)C[C@@H](Sc2nnc[nH]2)[C@H]2[C@H](C(=O)O)[C@H]21 [Example 1, (1R,2S,4R,5R,6R)-2-Amino-4-(4H-1,2,4-triazol-3-ylsulfanyl)bicyclo[3.1.0]hexane-2,6-dicarboxylic acid] | 1.27 mg/kg | 1.23 mg/kg |  |  |
| 61% | C[C@H](N)C(=O)N[C@@]1(C(=O)O)C[C@@H](Sc2nnc[nH]2)[C@H]2[C@H](C(=O)O)[C@H]21.Cl [Example 2, (1R,2S,4R,5R,6R)-2-[[(2S)-2-Aminopropanoyl]amino]-4-(1H-1,2,4-triazol-3-ylsulfanyl)bicyclo[3.1.0]hexane-2,6-dicarboxylic acid hydrochloride] |  |  | 16.2 mg/kg | 2.94 mg/kg |
